Results on one molecule are retold here after US11285127B2, “Compositions and methods for lowering triglycerides without raising LDL-C levels in a subject on concomitant statin therapy” (Amarin Pharmaceuticals Ireland Limited, priority 2013, dated 2022).

Assay [1] deals with patients with fasting triglyceride levels >200 mg/dl and <500 mg/dl despite statin therapy. As to the kind of experiment: 12-week study: red blood cell fatty acids (EPA concentration, FADI ratios) by gas chromatography/flame ionization detection. The class given is in vivo, human. The conditions noted are these: 4 g/day, placebo-adjusted, 12 weeks. How it is done:
(§1) A multi-center, placebo-controlled, randomized, double-blind, 12-week study was performed to evaluate the efficacy and safety of >96% E-EPA in patients with fasting triglyceride levels >200 mg/dl and <500 mg/dl despite statin therapy (the mean of two qualifying entry values needed to be >185 mg/dl and at least one of the values needed to be >200 mg/dl). The primary objective of the study was to determine the efficacy of >96% E-EPA 2 g daily and 4 g daily, compared to placebo, in lowering fasting TG levels in patients with high risk for cardiovascular disease and with fasting TG levels 200 mg/dl and <500 mg/dl, despite treatment to LDL-C goal on statin therapy. The secondary objectives of this study were the following: • 1. To determine the safety and tolerability of >96% E-EPA 2 g daily and 4 g daily; • 2. To determine the effect of >96% E-EPA on lipid and apolipoprotein profiles including total cholesterol (TC), non-high-density lipoprotein cholesterol (non-HDL-C), low density lipoprotein cholesterol (LDL-C), high density lipoprotein cholesterol (HDL-C), and […]; • 3. To determine the effect of >96% E-EPA on lipoprotein associated phospholipase A2 (Lp-PLA2) from baseline to week 12; • 4. To determine the effect of >96% E-EPA on low-density lipoprotein (LDL) particle number and size; • 5. […]

Assay [2] shares this test system. As to the kind of experiment: 12-week study: plasma fatty acids (EPA concentration, FADI ratios) by gas chromatography/flame ionization detection. Type of assay: in vivo, human. To be noted: 4 g/day, placebo-adjusted, 12 weeks. How it is done: as §1

As to `CC/C=C\C/C=C\C/C=C\C/C=C\C/C=C\CCCC(=O)OCC` [AMR101, ethyl eicosapentaenoate], in assay [1], the “FADI-16 (Palmitoleic acid/Palmitic acid, C16:1/C16:0), % Change, RBCs” value is reported as −15.7% and the “FADI-18 (Oleic acid/Stearic Acid, C18:1/C18:0), % Change, RBCs” value is reported as −3.1%. Further, in assay [2], the “FADI-16 (Palmitoleic acid/Palmitic acid, C16:1/C16:0), % Change, Plasma” value is listed as −6.8% and the “FADI-18 (Oleic acid/Stearic Acid, C18:1/C18:0), % Change, Plasma” value is −9.8%.
